Measurements reported in patent publication EP0059645A1, “Method and kit for identification of beta-lactamases” (NATIONAL RESEARCH DEVELOPMENT CORPORATION, priority 1981, dated 1982).
Marks after values point to notes of the source that are not given here.

What was measured:
Ps +AMP (Chromosomal) = Ps +AMP (Chromosomal) (Pseudomonas aeruginosa, UniProt P24735); experiment: 6-well visual test with nitrocefin; details: well D: Mecillinam 20:1 to nitrocefin; 3 minutes, room temperature
PSE-4 [1] = target: T1, PSE-4 (Pseudomonas aeruginosa, UniProt P16897); experiment: Competitive assay with nitrocefin (RSAI); format: biochemical, Ps.aerug. 1559E; parameters: Normally, therefore, the beta-lactamase has to be extracted from the cells for the purpose of the present invention; endogenous in cells
OXA-3 [2] = target: T2, OXA-3 (Pseudomonas aeruginosa, UniProt Q51429); experiment: 6-well visual test with nitrocefin; details: well D: Mecillinam 20:1 to nitrocefin; 3 minutes, room temperature
OXA-3 [3] = target: T2, OXA-3; experiment: Competitive assay with nitrocefin (RSAI); format: biochemical, E. coli R57B; parameters: Normally, therefore, the beta-lactamase has to be extracted from the cells for the purpose of the present invention; endogenous in cells
PSE-2 [4] = target: T3, PSE-2 (Pseudomonas aeruginosa, UniProt P14489); experiment: 6-well visual test with nitrocefin; details: well D: Mecillinam 20:1 to nitrocefin; 3 minutes, room temperature
PSE-3 [5] = experiment: Competitive assay with nitrocefin (RSAI); format: biochemical, Ps.aerug. 1920E
PSE-2 [6] = target: T3, PSE-2; experiment: Competitive assay with nitrocefin (RSAI); format: biochemical, Ps.aerug. 1973E; parameters: Normally, therefore, the beta-lactamase has to be extracted from the cells for the purpose of the present invention; endogenous in cells
[7] = target: T4, Chromosomal, constitutive beta-lactamase enzyme (Enterobacter cloacae, UniProt P05364); experiment: Competitive assay with nitrocefin (RSAI); format: biochemical, E. cloacae
T4 construct: Normally, therefore, the beta-lactamase has to be extracted from the cells for the purpose of the present invention; endogenous in cells

K1073 = experiment: Competitive assay with nitrocefin (RSAI); format: biochemical, Klebsiella 1073
Source text: (§1) It is convenient to express the results in terms of a Relative Substrate Affinity Index (RSAI) value.
(§2) RSAI = Concentration of competing substrate which gives 50% inhibition of ring-opening hydrolysis of the chromogenic substrate
(§3) Concentration of chromogenic substrate in the assay A high RSAI value therefore indicates a low affinity of the beta-lactamase for that competing substrate, and therefore predicts resistance of a beta-lactam competing substrate to hydrolysis by the beta-lactamase. Low RSAI values, in contrast, predict sensitivity to hydrolysis by a beta-lactamase.
(§4) Beta-lactam antibiotics which bind to the TEM-2 enzyme compete with nitrocefin in the assay. […] . This concentration of ampicillin is a direct estimate of the relative affinity of the TEM-2 enzyme for ampicillin. […] . The RSAI value was therefore 1.3.

SHV-1 [8] = target: T5, SHV-1 (Escherichia coli, UniProt P0AD63); experiment: 6-well visual test with nitrocefin; details: well D: Mecillinam 20:1 to nitrocefin; 3 minutes, room temperature
PSE-4 [9] = target: T1, PSE-4; experiment: 6-well visual test with nitrocefin; details: well D: Mecillinam 20:1 to nitrocefin; 3 minutes, room temperature
PSE-1 [10] = target: T6, PSE-1 (Pseudomonas aeruginosa, UniProt Q03170); experiment: Competitive assay with nitrocefin (RSAI); format: biochemical, Ps.aerug. 1937E; parameters: Normally, therefore, the beta-lactamase has to be extracted from the cells for the purpose of the present invention; endogenous in cells
SHV-1 [11] = target: T5, SHV-1; experiment: Competitive assay with nitrocefin (RSAI); format: biochemical, E. coli 2008E; parameters: the beta-lactamase has to be extracted from the cells for the purpose of the present invention; made in house; host or cells: E. coli 2008E (crude cell extract)
PSE-3 [12] = experiment: 6-well visual test with nitrocefin; details: well D: Mecillinam 20:1 to nitrocefin; 3 minutes, room temperature
OXA-1 [13] = target: T7, OXA-1 (Escherichia coli, UniProt P13661); experiment: 6-well visual test with nitrocefin; details: well D: Mecillinam 20:1 to nitrocefin; 3 minutes, room temperature
HMS-1 [14] = experiment: 6-well visual test with nitrocefin; details: well D: Mecillinam 20:1 to nitrocefin; 3 minutes, room temperature
OXA-1 [15] = target: T7, OXA-1; experiment: Competitive assay with nitrocefin (RSAI); format: biochemical, E. coli 1527E; parameters: the beta-lactamase has to be extracted from the cells for the purpose of the present invention; made in house; host or cells: E. coli 1527E according to the earlier reading (crude cell extract)
TEM-2 [16] = target: T8, TEM-2 (Escherichia coli, UniProt P62593, Q37K); experiment: 6-well visual test with nitrocefin; details: well D: Mecillinam 20:1 to nitrocefin; 3 minutes, room temperature
OXA-2 [17] = target: T9, OXA-2 (Escherichia coli, UniProt P0A1V9); experiment: 6-well visual test with nitrocefin; details: well D: Mecillinam 20:1 to nitrocefin; 3 minutes, room temperature
[18] = target: T10, Chromosomal, induced beta-lactamase enzyme (Pseudomonas aeruginosa, UniProt P24735); experiment: Competitive assay with nitrocefin (RSAI); format: biochemical, Ps.aerug. 1937E + ampicillin
T10 construct: Normally, therefore, the beta-lactamase has to be extracted from the cells for the purpose of the present invention; endogenous in cells; host or cells: Pseudomonas aeruginosa 1937E grown with ampicillin

TEM-1 [19] = target: T11, TEM-1 (Escherichia coli, UniProt P62593); experiment: Competitive assay with nitrocefin (RSAI); format: biochemical, E. coli 2136E; parameters: the beta-lactamase has to be extracted from the cells for the purpose of the present invention; made in house; host or cells: E. coli 2136E (plasmid-bearing strain; crude cell extract)
K17 = experiment: Competitive assay with nitrocefin (RSAI); format: biochemical, Klebsiella 17
Source text: as §1, §2, §3, §4

TEM-2 [20] = target: T8, TEM-2; experiment: Competitive assay with nitrocefin (RSAI); format: biochemical, E. coli 1725E
Source text: as §1, §2, §3, §4

E. cloacae = E. cloacae (Enterobacter cloacae, UniProt P05364); experiment: 6-well visual test with nitrocefin; details: well D: Mecillinam 20:1 to nitrocefin; 3 minutes, room temperature
OXA-2 [21] = target: T9, OXA-2; experiment: Competitive assay with nitrocefin (RSAI); format: biochemical, E. coli R46; parameters: the beta-lactamase has to be extracted from the cells for the purpose of the present invention; made in house; host or cells: E. coli carrying R46 according to the earlier reading (crude cell extract)
K10317 = experiment: Competitive assay with nitrocefin (RSAI); format: biochemical, K.aerog. 10317
Source text: as §1, §2, §3, §4

[22] = target: Chromosomal, hyper-induced beta-lactamase enzyme (Escherichia coli, UniProt P00811); experiment: Competitive assay with nitrocefin (RSAI); format: biochemical, E. coli SNU35; parameters: Normally, therefore, the beta-lactamase has to be extracted from the cells for the purpose of the present invention; endogenous in cells; host or cells: E. coli SNU 35 (artificially produced strain)
HMS-1 [23] = experiment: Competitive assay with nitrocefin (RSAI); format: biochemical, E. coli 1946
PSE-1 [24] = target: T6, PSE-1; experiment: 6-well visual test with nitrocefin; details: well D: Mecillinam 20:1 to nitrocefin; 3 minutes, room temperature
TEM-1 [25] = target: T11, TEM-1; experiment: 6-well visual test with nitrocefin; details: well D: Mecillinam 20:1 to nitrocefin; 3 minutes, room temperature
[26] = system: O=C(Cc1cccs1)N[C@@H]1C(=O)N2C(C(=O)O)=C(C=Cc3ccc([N+](=O)[O-])cc3[N+](=O)[O-])CS[C@H]12; experiment: purified protein, by the assay type; details: pH 7.0; 37.0 °C
TEM-2 beta-lactamase = TEM-2 beta-lactamase (Escherichia coli, UniProt P62593, Q37K); format: biochemical, E. coli C9 RP4; details: without pre-incubation; nitrocefin 50 micrograms/ml; after 4.5 minutes; 37°C

CC1(C)S[C@@H]2[C@H](/N=C/N3CCCCCC3)C(=O)N2[C@H]1C(=O)O [Mecil-linam, Mecillinam]
Score in 6-well visual test (Ps +AMP (Chromosomal)): +
RSAI (PSE-4 [1]): 140
Score in 6-well visual test (OXA-3 [2]): +
RSAI (OXA-3 [3]): 30
Score in 6-well visual test (PSE-2 [4]): ++
RSAI (PSE-3 [5]): 15
RSAI (PSE-2 [6]): 450
RSAI [7]: 1.3*
RSAI (K1073): 102
Score in 6-well visual test (SHV-1 [8]): ++
Score in 6-well visual test (PSE-4 [9]): ++
RSAI (PSE-1 [10]): 66
RSAI (SHV-1 [11]): 80
Score in 6-well visual test (PSE-3 [12]): +
Score in 6-well visual test (OXA-1 [13]): ++
Score in 6-well visual test (HMS-1 [14]): -
RSAI (OXA-1 [15]): 400
Score in 6-well visual test (TEM-2 [16]): ++
Score in 6-well visual test (OXA-2 [17]): +
RSAI [18]: 68
RSAI (TEM-1 [19]): 90
RSAI (K17): 260
RSAI (TEM-2 [20]): 80
Score in 6-well visual test (E. cloacae): -
RSAI (OXA-2 [21]): 100
RSAI (K10317): 80
RSAI [22]: 0.7*
RSAI (HMS-1 [23]): 2
Score in 6-well visual test (PSE-1 [24]): ++
Score in 6-well visual test (TEM-1 [25]): ++

(Pseudomonas aeruginosa)
Km [26]: 28 µg/mL

CC1(C)S[C@@H]2[C@H](NC(=O)[C@H](N)c3ccccc3)C(=O)N2[C@H]1C(=O)O [Ampi-cillin, ampicillin]
RSAI (PSE-4 [1]): 2.7
RSAI (OXA-3 [3]): 0.2
RSAI (PSE-3 [5]): 1.7
RSAI (PSE-2 [6]): 0.85
RSAI (TEM-2 beta-lactamase): 1.3
RSAI [7]: 0.02
RSAI (K1073): 6.7
RSAI (PSE-1 [10]): 0.4
RSAI (SHV-1 [11]): 3
RSAI (OXA-1 [15]): 4
RSAI [18]: 0.12
RSAI (TEM-1 [19]): 4
RSAI (K17): 2.9
RSAI (TEM-2 [20]): 2.6
RSAI (OXA-2 [21]): 10
RSAI (K10317): 9.4
RSAI [22]: 0.03*
RSAI (HMS-1 [23]): 0.5
